In US20230107642A1 (Erasca, Inc., priority 2020, published 2023):

target: T1, K-Ras G12C (Homo sapiens, UniProt P01116, G12C); assay: CAF assay (% CAF; method in Example 7, not in this part); format: binding; conditions: 10 uM, 1 h; Table 3
T1 construct: This protein contained 188 amino acids in total, including an N-terminal 6-Histidine tag; made in house; host or cells: E. coli BL21

First: N#CC[C@H]1CN(c2nc(=O)n3c4c(c(-c5ccc(F)cc5F)c(Cl)cc24)SCC3)CCN1C(=O)/C=C/C(F)(F)F [Example 81, 2-((2S)-4-(9-chloro-10-(2,4-difluorophenyl)-5-oxo-2,3-dihydro-5H-[1,4]thiazino[2,3,4-ij]quinazolin-7-yl)-1-((E)-4,4,4-trifluorobut-2-enoyl)piperazin-2-yl)acetonitrile]
Second: C=CC(=O)N1CCN(c2nc(=O)n3c4c(c(-c5ccc(F)cc5F)c(Cl)cc24)SCC3)C[C@@H]1CC#N [Example 88, 2-((2S)-1-acryloyl-4-(9-chloro-10-(2,4-difluorophenyl)-5-oxo-2,3-dihydro-5H-[1,4]thiazino[2,3,4-ij]quinazolin-7-yl)piperazin-2-yl)acetonitrile]
The “% CAF @ 10 uM, 1h” value of the first is lower: 89% for the first, 90.2% for the second.

Going from C=CC(=O)N1CCN(c2nc(=O)n3c4c(c(-c5cc(Cl)c(F)cc5F)c(Cl)cc24)SCC3)[C@@H](C)C1 [Example 82, 7-((S)-4-acryloyl-2-methylpiperazin-1-yl)-9-chloro-10-(5-chloro-2,4-difluorophenyl)-2,3-dihydro-5H-[1,4]thiazino[2,3,4-ij]quinazolin-5-one] to C=CC(=O)N1CCN(c2nc(=O)n3c4c(c(-c5cc(F)c(F)c(F)c5)c(Cl)cc24)SCC3)[C@@H](C)C1 [Example 90, (S)-7-(4-acryloyl-2-methylpiperazin-1-yl)-9-chloro-10-(3,4,5-trifluorophenyl)-2,3-dihydro-5H-[1,4]thiazino[2,3,4-ij]quinazolin-5-one], the “% CAF @ 10 uM, 1h” value falls from 85.8% to 78.8%.

Going from C=CC(=O)N1CCN(c2nc(=O)n3c4c(c(-c5ccc(F)c(C#N)c5)c(Cl)cc24)SCC3)[C@@H](C)C1 [Example 83, (S)-5-(7-(4-acryloyl-2-methylpiperazin-1-yl)-9-chloro-5-oxo-2,3-dihydro-5H-[1,4]thiazino[2,3,4-ij]quinazolin-10-yl)-2-fluorobenzonitrile] to C=CC(=O)N1CCN(c2nc(=O)n3c4c(c(-c5ccc(F)c(Cl)c5)c(Cl)cc24)SCC3)[C@@H](C)C1 [Example 98, (S)-7-(4-acryloyl-2-methylpiperazin-1-yl)-9-chloro-10-(3-chloro-4-fluorophenyl)-2,3-dihydro-5H-[1,4]thiazino[2,3,4-ij]quinazolin-5-one], the “% CAF @ 10 uM, 1h” value rises from 85.3% to 86.4%.

Compared with C=CC(=O)N1C2CN(c3nc(=O)n4c5c(c(-c6ccc(F)cc6F)c(Cl)cc35)SCC4)CC1CS(=O)(=O)C2 [Example 84, 7-(9-acryloyl-3,3-dioxido-3-thia-7,9-diazabicyclo[3.3.1]nonan-7-yl)-9-chloro-10-(2,4-difluorophenyl)-2,3-dihydro-5H-[1,4]thiazino[2,3,4-ij]quinazolin-5-one], C=CC(=O)N1C2CN(c3nc(=O)n4c5c(c(-c6ccc(F)cc6F)c(Cl)cc35)SCC4)CC1CN(S(C)(=O)=O)C2 [Example 95, 7-(9-acryloyl-7-(methylsulfonyl)-3,7,9-triazabicyclo[3.3.1]nonan-3-yl)-9-chloro-10-(2,4-difluorophenyl)-2,3-dihydro-5H-[1,4]thiazino[2,3,4-ij]quinazolin-5-one] is higher in “% CAF @ 10 uM, 1h” value: 43.8% for the first, 70.5% for the second.

First: C=CC(=O)N1CCN(c2nc(=O)n3c4c(c(-c5ccc(F)c(C(=O)NC)c5)c(Cl)cc24)SCC3)[C@@H](C)C1 [Example 85, (S)-5-(7-(4-acryloyl-2-methylpiperazin-1-yl)-9-chloro-5-oxo-2,3-dihydro-5H-[1,4]thiazino[2,3,4-ij]quinazolin-10-yl)-2-fluoro-N-methylbenzamide]
Second: C=CC(=O)N1CCN(c2nc(=O)n3c4c(c(-c5ccc(Cl)c(F)c5)c(Cl)cc24)SCC3)[C@@H](C)C1 [Example 89, (S)-7-(4-acryloyl-2-methylpiperazin-1-yl)-9-chloro-10-(4-chloro-3-fluorophenyl)-2,3-dihydro-5H-[1,4]thiazino[2,3,4-ij]quinazolin-5-one]
The “% CAF @ 10 uM, 1h” value of the first is lower: 60.3% for the first, 94.5% for the second.

Going from C=CC(=O)N1CCN(c2nc(=O)n3c4c(c(-c5cccc6cnccc56)c(Cl)cc24)SCC3)[C@@H](C)C1 [Example 86, 7-((S)-4-acryloyl-2-methylpiperazin-1-yl)-9-chloro-10-(isoquinolin-5-yl)-2,3-dihydro-5H-[1,4]thiazino[2,3,4-ij]quinazolin-5-one] to C=CC(=O)N1CCN(c2nc(=O)n3c4c(c(-c5cccc6c5C(=O)NC6)c(Cl)cc24)SCC3)[C@@H](C)C1 [Example 96, 7-((S)-4-acryloyl-2-methylpiperazin-1-yl)-9-chloro-10-(3-oxoisoindolin-4-yl)-2,3-dihydro-5H-[1,4]thiazino[2,3,4-ij]quinazolin-5-one], the “% CAF @ 10 uM, 1h” value falls from 76.1% to 54%.

First: C=CC(=O)N1CCN(c2nc(=O)n3c4c(c(-c5ccc(F)cc5F)c(Cl)cc24)SC[C@H]3CC2CCN(C)CC2)[C@@H](C)C1 [Example 87, (3R)-7-((S)-4-acryloyl-2-methylpiperazin-1-yl)-9-chloro-10-(2,4-difluorophenyl)-3-((1-methylpiperidin-4-yl)methyl)-2,3-dihydro-5H-[1,4]thiazino[2,3,4-ij]quinazolin-5-one]
Second: C=CC(=O)N1CCN(c2nc(=O)n3c4c(c(-c5c(F)cc(F)cc5F)c(Cl)cc24)SC[C@H]3CC2CCN(C)CC2)[C@@H](C)C1 [Example 91, (R)-7-((S)-4-acryloyl-2-methylpiperazin-1-yl)-9-chloro-3-((1-methylpiperidin-4-yl)methyl)-10-(2,4,6-trifluorophenyl)-2,3-dihydro-5H-[1,4]thiazino[2,3,4-ij]quinazolin-5-one]
The “% CAF @ 10 uM, 1h” value of the first is lower: 82.4% for the first, 94.8% for the second.

Going from C=CC(=O)N1CCN(c2nc(=O)n3c4c(c(-c5c(F)cc(F)cc5F)c(Cl)cc24)SC[C@@H]3CC2CCN(C)CC2)[C@@H](C)C1 [Example 92, (S)-7-((S)-4-acryloyl-2-methylpiperazin-1-yl)-9-chloro-3-((1-methylpiperidin-4-yl)methyl)-10-(2,4,6-trifluorophenyl)-2,3-dihydro-5H-[1,4]thiazino[2,3,4-ij]quinazolin-5-one] to C=CC(=O)N1CCN(c2nc(=O)n3c4c(c(-c5ccc(F)cc5F)c(Cl)cc24)SC[C@@H]3CCCN2C[C@@H]3C[C@H]2CO3)[C@@H](C)C1 [Example 94, (3S)-3-(3-((1S,4S)-2-oxa-5-azabicyclo[2.2.1]heptan-5-yl)propyl)-7-((S)-4-acryloyl-2-methylpiperazin-1-yl)-9-chloro-10-(2,4-difluorophenyl)-2,3-dihydro-5H-[1,4]thiazino[2,3,4-ij]quinazolin-5-one], the “% CAF @ 10 uM, 1h” value falls from 96.7% to 94.7%.

Compared with C[C@H]1CN(C(=O)/C=C/C(F)(F)F)CCN1c1nc(=O)n2c3c(c(-c4ccc(F)c(Cl)c4)c(Cl)cc13)SCC2 [Example 93, (S,E)-9-chloro-10-(3-chloro-4-fluorophenyl)-7-(2-methyl-4-(4,4,4-trifluorobut-2-enoyl)piperazin-1-yl)-2,3-dihydro-5H-[1,4]thiazino[2,3,4-ij]quinazolin-5-one], C=CC(=O)N1CCN(c2nc(=O)n3c4c(c(-c5ccc(F)cc5F)c(Cl)cc24)SC[C@H]3CCCN2C[C@@H]3C[C@H]2CO3)[C@@H](C)C1 [Example 97, (3R)-3-(3-((1S,4S)-2-oxa-5-azabicyclo[2.2.1]heptan-5-yl)propyl)-7-((S)-4-acryloyl-2-methylpiperazin-1-yl)-9-chloro-10-(2,4-difluorophenyl)-2,3-dihydro-5H-[1,4]thiazino[2,3,4-ij]quinazolin-5-one] is higher in “% CAF @ 10 uM, 1h” value: 95% for the first, 96.5% for the second.
